Laboratory results as given in patent US6429227B1, “Hydroxyeicosatetraenoate salts, compositions and methods of use in treating dry eye disorders” (Alcon Universal Ltd., priority 1999, dated 2002).

Legend:
Type in all cases: physicochemical
[1] = Stability of samples dried from ethanolic stock in amber glass vials at room temperature under ambient atmosphere, HPLC (Example 7); conditions: for % Remaining: dried film
Text: Ethanolic stock solutions of 15(S)-HETE free acid and 15(S)-HETE free acid with an approximately equimolar amount of sodium hydroxide (to form the sodium salt in situ) were aliquoted to amber glass vials and dried under a stream of helium. The vials were stored at room temperature under ambient atmosphere. At various times, two vials of each were reconstituted with an aliquot of 50/50 acetonitrile/water and assayed by HPLC for 15(S)-HETE. The results are shown in Table 2 and illustrated in FIG. 1: […]

[2] = Stability of neat 15(S)-HETE free acid vs sodium salt, four days under ambient air, HPLC (Example 6)
Experimental: 15(S)-HETE free acid and 15(S)-HETE-sodium salt were stored under ambient air for four days and exposed to either a temperature of 40° C. in total darkness, or ambient temperature and 300 foot-candles of light (approximately Standard Fluorescent Room Light). Following the four day exposure, aliquots of the samples were analyzed by HPLC for percent remaining HETE and results are reported in Table 1: […]

[3] = Storage stability of 15(S)-HETE-sodium salt as neat solid or as solution in absolute ethanol, HPLC (Example 8)
Experimental: 15(S)-HETE-sodium salt as the neat solid under argon or as solutions in absolute ethanol under ambient atmosphere were stored in amber glass vials in a −20° C. freezer or at room temperature. At various times, the samples were analyzed by HPLC for percent of initial 15(S)-HETE remaining.

SMILES: CCCCC[C@H](O)/C=C/C=C\C/C=C\C/C=C\CCCC(=O)O [15(S)-HETE-free acid, 15(S)-HETE free acid, reference compound]
- % Remaining ([1]; 0 hours): 100%
- % Remaining ([1]; 5 hours): 4%
- % Remaining ([1]; 24 hours): 0%
- % Remaining ([1]; 55 hours): 0%
- % Remaining ([1]; 72 hours): 0%
- % of Initial Amount Remaining ([2]; 40° C., dark): 0%
- % of Initial Amount Remaining ([2]; ambient temp., 300 F-C light): 2%

SMILES: CCCCC[C@H](O)/C=C/C=C\C/C=C\C/C=C\CCCC(=O)[O-].[Na+] [15(S)-HETE-sodium salt, 5,8,11,13-Eicosatetraenoic acid, 15-hydroxy-[15S-(5Z,8Z,11Z,13E)]-sodium salt]
- % Remaining ([1]; 0 hours): 100%
- % Remaining ([1]; 5 hours): 94%
- % Remaining ([1]; 24 hours): 79%
- % Remaining ([1]; 55 hours): 66%
- % Remaining ([1]; 72 hours): 65%
- stability relative to the corresponding free acid (in words) ([1]; up to 72 hours): more stable than the corresponding free acid
- % of Initial Amount Remaining ([2]; 40° C., dark): 86%
- % of Initial Amount Remaining ([2]; ambient temp., 300 F-C light): 58%
- % of Initial ([3]; 1 mg/mL in absolute ethanol, ambient atmosphere, room temp., 2.0 weeks): 101%
- % of Initial ([3]; 1 mg/mL in absolute ethanol, ambient atmosphere, room temp., 4.4 weeks): 101%
- % of Initial ([3]; 1 mg/mL in absolute ethanol, ambient atmosphere, room temp., 6.0 weeks): 101%
- % of Initial ([3]; 1 mg/mL in absolute ethanol, ambient atmosphere, room temp., 8.4 weeks): 101%
- % of Initial ([3]; 1 mg/mL in absolute ethanol, ambient atmosphere, −20° C. freezer, 2.0 weeks): 102%
- % of Initial ([3]; 1 mg/mL in absolute ethanol, ambient atmosphere, −20° C. freezer, 4.4 weeks): 102%
- % of Initial ([3]; 1 mg/mL in absolute ethanol, ambient atmosphere, −20° C. freezer, 6.0 weeks): 101%
- % of Initial ([3]; 1 mg/mL in absolute ethanol, ambient atmosphere, −20° C. freezer, 8.4 weeks): 101%
- % of Initial ([3]; 10 mg/mL in absolute ethanol, ambient atmosphere, room temp., 2.0 weeks): 101%
- % of Initial ([3]; 10 mg/mL in absolute ethanol, ambient atmosphere, room temp., 4.4 weeks): 101%
- % of Initial ([3]; 10 mg/mL in absolute ethanol, ambient atmosphere, room temp., 6.0 weeks): 101%
- % of Initial ([3]; 10 mg/mL in absolute ethanol, ambient atmosphere, room temp., 8.4 weeks): 100%
- % of Initial ([3]; 10 mg/mL in absolute ethanol, ambient atmosphere, −20° C. freezer, 2.0 weeks): 101%
- % of Initial ([3]; 10 mg/mL in absolute ethanol, ambient atmosphere, −20° C. freezer, 4.4 weeks): 102%
- % of Initial ([3]; 10 mg/mL in absolute ethanol, ambient atmosphere, −20° C. freezer, 6.0 weeks): 101%
- % of Initial ([3]; 10 mg/mL in absolute ethanol, ambient atmosphere, −20° C. freezer, 8.4 weeks): 101%
- % of Initial ([3]; solid under argon, room temp., 2.0 weeks): 72%
- % of Initial ([3]; solid under argon, room temp., 4.4 weeks): 61%
- % of Initial ([3]; solid under argon, room temp., 6.0 weeks): 42%
- % of Initial ([3]; solid under argon, room temp., 8.4 weeks): 28%
- % of Initial ([3]; solid under argon, −20° C. freezer, 2.0 weeks): 99%
- % of Initial ([3]; solid under argon, −20° C. freezer, 4.4 weeks): 97%
- % of Initial ([3]; solid under argon, −20° C. freezer, 6.0 weeks): 95%
- % of Initial ([3]; solid under argon, −20° C. freezer, 8.4 weeks): 92%
